Data on 7 compounds can be found in patent US10023534B2 (BRISTOL-MYERS SQUIBB COMPANY, priority 2014, dated 2018).

One experiment concerns the target human recombinant Btk (Homo sapiens (Human), UniProt Q06187). Briefly: Human Recombinant Btk Enzyme Assay. The format is biochemical. Conditions: for Potency Difference Btk: ratio of IC50 value for the Comparative Example to that for the corresponding Example: Comparative Example (stereoisomer) IC50 / Example IC50. The procedure: Human Recombinant Btk Enzyme Assay
To V-bottom 384-well plates were added test compounds, human recombinant Btk (1 nM, Invitrogen Corporation), fluoresceinated peptide (1.5 μM), ATP (20 μM), and assay buffer (20 mM HEPES pH 7.4, 10 mM MgCl2, 0.015% Brij 35 surfactant and 4 mM DTT in 1.6% DMSO), with a final volume of 30 μL. After incubating at room temperature for 60 min, the reaction was terminated by adding 45 μL of 35 mM EDTA to each sample. The reaction mixture was analyzed on the Caliper LABCHIP® 3000 (Caliper, Hopkinton, Mass.) by electrophoretic separation of the fluorescent substrate and phosphorylated product. […] Compounds were dissolved at 10 mM in DMSO and evaluated at eleven concentrations.

The subject of another experiment is Ramos RA1 B cells. In words: Ramos FLIPR Assay (intracellular calcium flux, anti-human IgM stimulated). The format is cell-based. The conditions noted are these: for IC50: Ramos; for Potency Difference Ramos: ratio of IC50 value for the Comparative Example to that for the corresponding Example: Comparative Example (stereoisomer) IC50 / Example IC50. The procedure: Ramos FLIPR Assay […] Dye-loaded cells were pelleted (Beckmann GS-CKR, 1200 rpm, room temperature, 5 min) and resuspended at room temperature in RPMI minus phenol red with 50 mM HEPES and 10% FBS to a density of 1×10^6 cells/mL. 150 μL aliquots (150,000 cells/well) were plated into 96 well poly-D-lysine coated assay plates (BD 35 4640) and briefly centrifuged (Beckmann GS-CKR 800 rpm, 5 min, without brake). Next, 50 μL compound dilutions in 0.4% DMSO/RPMI minus phenol red+50 mM HEPES+10% FBS were added to the wells and the plate was incubated at room temperature in the dark for 1 hour. The assay plate was briefly centrifuged as above prior to measuring calcium levels. Using the […] (Molecular Devices), cells were stimulated by adding goat anti-human IgM (Invitrogen AHI0601) to 2.5 μg/mL. Changes in intracellular calcium concentrations were measured for 180 seconds and percent inhibition was determined relative to peak calcium levels seen in the presence of stimulation only. The Ramos assay measures the ability of a compound to move through the cell membrane into the cell interior. A lower IC50 value indicates a greater ability to move into the cell interior.
On the technique in general: Calcium flux is commonly read through the fluorescence of an indicator in the cells.

Setting [1] is: Table 3, ATP 20 μM, 60 min room temperature, read-out: Btk IC50 value.
Where [2] appears, read: Table 4, read-out: Example Btk IC50.
[3] abbreviates: Homo sapiens, Table 4, read-out: Example Ramos IC50.
The mark [4] stands for this setting: Table 3, calcium flux, goat anti-human IgM 2.5 μg/mL, read-out: Ramos IC50 value.

Molecules are shown by their SMILES. Read-outs that look alike come from different tables or passages of the source.

Sequence of human recombinant Btk (Q06187 whole entry): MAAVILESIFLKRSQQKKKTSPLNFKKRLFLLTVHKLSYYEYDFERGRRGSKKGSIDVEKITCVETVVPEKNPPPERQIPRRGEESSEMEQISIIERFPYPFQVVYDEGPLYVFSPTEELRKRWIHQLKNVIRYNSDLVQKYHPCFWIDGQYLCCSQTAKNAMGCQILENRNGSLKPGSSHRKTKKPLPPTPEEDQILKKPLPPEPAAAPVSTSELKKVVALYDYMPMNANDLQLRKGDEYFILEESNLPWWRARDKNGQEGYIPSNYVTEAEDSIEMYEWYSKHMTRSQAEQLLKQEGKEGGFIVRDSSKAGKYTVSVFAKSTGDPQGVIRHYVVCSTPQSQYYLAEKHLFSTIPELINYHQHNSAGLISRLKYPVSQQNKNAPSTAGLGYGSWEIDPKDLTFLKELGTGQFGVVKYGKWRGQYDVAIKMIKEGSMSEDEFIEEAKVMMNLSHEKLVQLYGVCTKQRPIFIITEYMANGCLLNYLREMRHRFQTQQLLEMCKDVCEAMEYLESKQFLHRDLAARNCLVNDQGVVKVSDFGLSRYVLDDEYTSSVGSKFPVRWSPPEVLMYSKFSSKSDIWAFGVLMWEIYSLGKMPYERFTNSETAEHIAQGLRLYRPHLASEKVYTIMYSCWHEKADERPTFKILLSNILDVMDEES

In general, IC50 refers to the concentration that gives 50% inhibition. Consider `C=CC(=O)N1CCSc2c(-c3c(F)cc(C(N)=O)c4[nH]c5ccccc5c34)cccc21` (single isomer, unassigned) [Comparative Example 23, 4-(4-Acryloyl-3,4-dihydro-2H-benzo[b][1,4]thiazin-8-yl)-3-fluoro-9H-carbazole-1-carboxamide], for which the IC50 at human recombinant Btk (Table 4, Comparative Example, read-out: Comparative Example Btk IC50) was found to be 4.4 nM; in the experiment with Ramos RA1 B cells (Homo sapiens, Table 4, Comparative Example, read-out: Comparative Example Ramos IC50) it was 150 nM.

Take `C=CC(=O)N1CCc2c(cccc2-c2c(F)cc(C(N)=O)c3[nH]c4ccccc4c23)C1` (single isomer, unassigned) [Example 5, 4-(2-Acryloyl-1,2,3,4-tetrahydroisoquinolin-5-yl)-3-fluoro-9H-carbazole-1-carboxamide]: at human recombinant Btk, the “Potency Difference Btk: ratio of IC50 value for the Comparative Example to that for the corresponding Example” value (“Potency Difference Btk: ratio” for short) turned out to be 60. Also, the IC50 on human recombinant Btk (setting [1]) was found to be 0.067 nM; on human recombinant Btk (setting [2]), 0.067 nM; with Ramos RA1 B cells (setting [3]), 2.4 nM; in the experiment on Ramos RA1 B cells (setting [4]) it was 2.4 nM. In addition, in the experiment with Ramos RA1 B cells, the “Potency Difference Ramos: ratio of IC50 value for the Comparative Example to that for the corresponding Example” value (shortened to “Potency Difference Ramos: ratio”) is 30.

As to `C=CC(=O)N1CCc2c(cccc2-c2c(F)cc(C(N)=O)c3[nH]c4c(c23)CC(F)(F)CC4)C1` (single isomer, unassigned) [Example 6, 5-(2-Acryloyl-1,2,3,4-tetrahydroisoquinolin-5-yl)-3,3,6-trifluoro-2,3,4,9-tetrahydro-1H-carbazole-8-carboxamide], the “Potency Difference Btk: ratio” value on human recombinant Btk was determined as 38. Also, the 50% inhibitory concentration (IC50) on human recombinant Btk (setting [1]) stood at 0.12 nM; on human recombinant Btk (setting [2]) it was 0.12 nM; with Ramos RA1 B cells (setting [3]), 23 nM; with Ramos RA1 B cells (setting [4]), 23 nM. In the experiment on Ramos RA1 B cells, the “Potency Difference Ramos: ratio” value is on record as above 13.

Consider `C=CC(=O)N1CCc2c(cccc2-c2c(F)cc(C(N)=O)c3[nH]c4cc(C(F)(F)F)ccc4c23)C1` (single isomer, unassigned) [Example 7, 4-(2-Acryloyl-1,2,3,4-tetrahydroisoquinolin-5-yl)-3-fluoro-7-(trifluoromethyl)-9H-carbazole-1-carboxamide], for which the “Potency Difference Btk: ratio” value at human recombinant Btk was determined as 78. Besides, the IC50 at human recombinant Btk (setting [1]) was 0.18 nM; at human recombinant Btk (setting [2]), 0.18 nM; with Ramos RA1 B cells (setting [3]), 11 nM; in the experiment on Ramos RA1 B cells (setting [4]), 10.7 nM. Besides, the “Potency Difference Ramos: ratio” value in the experiment on Ramos RA1 B cells is recorded as above 27.

Consider `C=CC(=O)N1CCOc2c(-c3c(F)cc(C(N)=O)c4[nH]c5ccccc5c34)cccc21` (single isomer, unassigned) [Example 8, 4-(4-Acryloyl-3,4-dihydro-2H-benzo[b][1,4]oxazin-8-yl)-3-fluoro-9H-carbazole-1-carboxamide], for which, on human recombinant Btk, the “Potency Difference Btk: ratio” value is given as 19. In addition, the half-maximal inhibitory concentration (IC50) on human recombinant Btk (setting [1]) was determined as 0.077 nM; on human recombinant Btk (setting [2]), 0.077 nM; in the experiment on Ramos RA1 B cells (setting [3]), 6.9 nM; with Ramos RA1 B cells (setting [4]) it was 6.9 nM. Also, the “Potency Difference Ramos: ratio” value in the experiment on Ramos RA1 B cells was 9.4.

Take `C=CC(=O)N1CCCOc2c(-c3c(F)cc(C(N)=O)c4[nH]c5cc(C(F)(F)F)ccc5c34)cccc21` (single isomer, unassigned) [Example 12, 4-(5-Acryloyl-2,3,4,5-tetrahydrobenzo[b][1,4]oxazepin-9-yl)-3-fluoro-7-(trifluoromethyl)-9H-carbazole-1-carboxamide]: the “Potency Difference Btk: ratio” value on human recombinant Btk was 26. Besides, the IC50 was 0.37 nM on human recombinant Btk (setting [1]), 0.37 nM on human recombinant Btk (setting [2]), 6.2 nM with Ramos RA1 B cells (setting [3]) and 6.2 nM in the experiment with Ramos RA1 B cells (setting [4]). The “Potency Difference Ramos: ratio” value with Ramos RA1 B cells was found to be 48.

Regarding `C=CC(=O)N1CCSc2c(-c3c(F)cc(C(N)=O)c4[nH]c5ccccc5c34)cccc21` (single isomer, unassigned) [Example 14, 4-(4-acryloyl-3,4-dihydro-2H-benzo[b][1,4]thiazin-8-yl)-3-fluoro-9H-carbazole-1-carboxamide], the “Potency Difference Btk: ratio” value at human recombinant Btk worked out at 60. Moreover, the half-maximal inhibitory concentration (IC50) at human recombinant Btk (setting [1]) was 0.073 nM; on human recombinant Btk (setting [2]) it was 0.073 nM; in the experiment on Ramos RA1 B cells (setting [3]) it was 7.8 nM; in the experiment on Ramos RA1 B cells (setting [4]), 7.8 nM. In the experiment with Ramos RA1 B cells, the “Potency Difference Ramos: ratio” value is 19.
